Laboratory results from patent publication US12285459B2, “Saposin-A derived peptides and uses thereof” (CHILDREN'S MEDICAL CENTER CORPORATION, priority 2011, dated 2025).

Key:
[1] = system: MDA-MB-231-LM2 breast cancer cells; assay: Orthotopic MDA-MB-231-LM2 breast cancer model, lung metastasis after primary tumor resection; assay type: in vivo, SCID mice
Procedure: For orthotopic breast cancer cell injections, 5×10^6 viable MDA-MB-231 or its metastatic variant MDA-MB-LM2 cells, were injected into CB-17 SCID mice fat pads in a volume of 0.1 ml. Tumor growth and pulmonary metastases (following resection of primary tumor) were monitored by live animal bioluminescence imaging (Xenogen) once per week. For orthotopic prostate cancer cell injections, 2×10^6 viable LN4 or LN4-psap cells were injected into the prostate gland of mice. For in vivo determination of the metastatic burden, mice were anaesthetized and injected intraperitoneally with 75 mg/kg of D-luciferin (100 uL of 30 mg/mL in PBS). Metastatic growth was monitored over time using bioluminescence imaging performed with mice in a supine position 5 min after D-luciferin injection with a Xenogen IVIS system coupled to Living Image acquisition and analysis software (Xenogen). For BLI plots, photon flux was calculated for each mouse by using the same circular region of interest encompassing the thorax of the mouse.
The ability of the DWLPK (SEQ ID NO: 4) peptide to inhibit metastasis was tested in an orthotopic, clinically relevant, model of breast cancer metastatic to the lung. […] Lung metastases were assessed 3 weeks after the primary tumor removal (week 6 after primary tumor injection).

[2] = system: Lewis Lung Carcinoma cells; assay: Lewis Lung Carcinoma tail vein lung metastasis model, bioluminescence; assay type: in vivo, C57Bl6 mice
Procedure: C57Bl6 mice were injected with 1×10^6 Lewis Lung Carcinoma cells via tail vein. After 10 days the animals were treated with either PBS or a peptide corresponding to residues 36-40 of saposin A at a dose of 30 mg/kg/day via i.p. injection. After 16 days of treatment all animals were sacrificed, lungs were weighed and harvested. Tissues were either fixed in NBF, or lysed and analyzed for Tsp-1 and p53 expression by western blot analysis.
1×10^6 luciferase-expressing LLC cells were then injected via tail vein into C57Bl6 mice. After 5 days the mice were treated with the 5-amino acid peptide at a dose of 30 mg/kg/day via i.p. injection. After 29 days the animals were sacrificed, at which point the average luciferase activity in the peptide treated mice, as measured by a Xeongoen IVIS system, was 2% that of the luciferase activity in mice treated with a scrambled peptide (FIG. 8).
For experimental metastasis, 7-week old C57BL/6 mice were injected via tail vein with 1×10^5 luciferase-labeled LLC cells. Metastatic growth was monitored over time using bioluminescence imaging performed with mice in a supine position 5 min after D-luciferin injection with a Xenogen IVIS system coupled to Living Image acquisition and analysis software (Xenogen). For BLI plots, photon flux was calculated for each mouse by using the same circular region of interest encompassing the thorax of the mouse.

DWLPK [5-amino acid peptide corresponding to residues 36-40 of saposin A]
Tsp-1 in the Gr1+ myeloid compartment of lungs ([1]; compared to scrambled peptide): persistent Tsp-1 upregulation
reduction of the metastatic burden in the lungs ([1]; daily treatment after resection, 3 weeks after primary tumor removal, versus scramble peptide): 50%
average luciferase activity relative to mice treated with a scrambled peptide ([2]; 30 mg/kg/day i.p. from day 5, after 29 days, IVIS): 2%
lung metastases by bioluminescence imaging ([2]; LLC-luc cells via tail vein, compared to scrambled peptide): dramatically reduced lung metastases
